# Data as given in patent US7041687B2, “Indazole compounds useful as protein kinase inhibitors” (Vertex Pharmaceuticals Incorporated, priority 2002, dated 2006).
# How the values were obtained:
# Assay type in all cases: biochemical
# AKT-3 = AKT-3 (Homo sapiens, UniProt Q9Y243); experiment: AKT-3 inhibition assay (standard coupled enzyme assay); conditions: 170 μM ATP, 200 μM peptide, 45 nM AKT, 30° C.
# PDK-1 = target: T1, PDK-1 (Homo sapiens, UniProt O15530); experiment: PDK-1 inhibition assay (radioactive-phosphate incorporation); conditions: 40 μM ATP, 65 μM PDKtide, 25 nM PDK-1, 30° C.
# T1 sequence (O15530 1-556): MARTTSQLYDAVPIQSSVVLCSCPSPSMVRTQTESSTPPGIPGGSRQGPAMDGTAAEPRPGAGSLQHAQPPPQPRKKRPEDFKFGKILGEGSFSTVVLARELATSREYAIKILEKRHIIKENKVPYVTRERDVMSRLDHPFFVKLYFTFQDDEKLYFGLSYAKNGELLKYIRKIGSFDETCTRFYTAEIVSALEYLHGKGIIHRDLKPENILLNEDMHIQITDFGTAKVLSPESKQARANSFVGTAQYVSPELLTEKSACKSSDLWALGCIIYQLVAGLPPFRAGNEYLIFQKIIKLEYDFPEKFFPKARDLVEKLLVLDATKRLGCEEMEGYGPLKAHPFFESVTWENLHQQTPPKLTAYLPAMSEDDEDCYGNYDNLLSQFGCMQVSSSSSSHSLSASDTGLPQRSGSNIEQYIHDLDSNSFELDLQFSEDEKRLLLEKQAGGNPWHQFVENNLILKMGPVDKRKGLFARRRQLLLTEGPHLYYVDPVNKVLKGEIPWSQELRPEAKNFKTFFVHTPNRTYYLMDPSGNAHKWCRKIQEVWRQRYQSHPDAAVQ
# Protocol: Compounds were screened for their ability to inhibit PDK-1 using a radioactive-phosphate incorporation assay (Pitt and Lee, J. Biomol. Screen., (1996) 1, 47). Assays were carried out in a mixture of 100 mM HEPES (pH 7.5), 10 mM MgCl2, 25 mM NaCl, 2 mM DTT. Final substrate concentrations in the assay were 40 μM ATP (Sigma Chemicals) and 65 μM peptide (PDKtide, Upstate, Lake Placid, N.Y.). Assays were carried out at 30° C. and 25 nM PDK-1 in the presence of ˜27.5 nCi/μL of [γ-^32P]ATP (Amersham Pharmacia Biotech, Amersham, UK). An assay stock buffer solution was prepared containing all of the reagents listed above, with the exception of ATP, and the test compound of interest. 15 μl of the stock solution was placed in a 96 well plate followed by addition of 1 μl of 0.5 mM DMSO stock containing the test compound (final compound concentration 25 μM, final DMSO concentration 5%). The plate was preincubated for about 10 minutes at 30° C. and the reaction initiated by addition of 4 μl ATP (final concentration 40 μM).
# The reaction was stopped after 10 minutes by the addition of 100 μL 100 mM phosphoric acid, 0.01% Tween-20. A phosphocellulose 96 well plate (Millipore, Cat no. MAPHNOB50) was pretreated with 100 μL 100 mM phosphoric acid, 0.01% Tween-20 prior to the addition of the reaction mixture (100 μL). The spots were left to soak for at least 5 minutes, prior to wash steps (4×200 μL 100 mM phosphoric acid, 0.01% Tween-20). Alter drying, 20 μL Optiphase ‘SuperMix’ liquid scintillation cocktail (Perkin Elmer) was added to the well prior to scintillation counting (1450 Microbeta Liquid Scintillation Counter, Wallac).
# PKA = PKA (Homo sapiens, UniProt P17612); experiment: PKA inhibition assay (standard coupled enzyme assay); conditions: 50 μM ATP, 80 μM Kemptide, 18 nM PKA, 30° C.
# Method in brief: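 Coupled PK/LDH assay (NADH read) with 18 nM PKA, 50 μM ATP and 80 μM Kemptide in 100 mM HEPES 7.5, 10 mM MgCl2, 3% DMSO at 30 °C. Compound dilutions (typically from 5 μM final) preincubated 10 min before ATP start; initial rates over 15 min gave IC50 and Ki by non-linear regression.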
# AKT-3, sequence (Q9Y243 whole entry): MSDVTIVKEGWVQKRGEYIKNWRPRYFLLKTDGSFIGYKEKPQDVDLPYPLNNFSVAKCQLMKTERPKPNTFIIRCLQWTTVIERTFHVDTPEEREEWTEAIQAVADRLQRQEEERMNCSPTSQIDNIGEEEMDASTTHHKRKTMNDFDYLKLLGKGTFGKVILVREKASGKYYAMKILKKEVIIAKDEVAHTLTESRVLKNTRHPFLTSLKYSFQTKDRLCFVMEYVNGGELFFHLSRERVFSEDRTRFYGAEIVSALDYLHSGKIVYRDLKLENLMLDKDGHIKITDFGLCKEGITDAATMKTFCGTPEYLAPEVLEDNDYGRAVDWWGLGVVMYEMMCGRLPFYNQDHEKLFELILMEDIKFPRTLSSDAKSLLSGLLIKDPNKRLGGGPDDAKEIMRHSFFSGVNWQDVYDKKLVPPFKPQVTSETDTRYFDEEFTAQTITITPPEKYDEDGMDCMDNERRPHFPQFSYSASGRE
SMILES,Ki (AKT-3) [nM],Ki (PDK-1) [nM],Ki (PKA) [nM]
CCCc1ccc(C(=O)Nc2n[nH]c3ccc(NC(=O)C(CCN)c4ccc(Cl)c(Cl)c4)cc23)cc1 (stereo not drawn) [Compound I-188],< 1000,1000 to 3000,< 1000
NCCC(C(=O)Nc1ccc2[nH]nc(NC(=O)c3ccccc3Cl)c2c1)c1ccc(Cl)c(Cl)c1 (stereo not drawn) [Compound I-180],< 1000,1000 to 3000,< 1000
CCc1n[nH]c2ccc(NC(=O)C(CCN)c3ccc(Cl)c(Cl)c3)cc12 (stereo not drawn) [Compound I-118],< 1000,1000 to 3000,< 1000
NCC(C(=O)Nc1ccc2[nH]ncc2c1)c1ccc(Cl)c(Cl)c1 (stereo not drawn) [Compound I-99],< 1000,> 3000,< 1000
NCCC(C(=O)Nc1ccc2[nH]nc(NC(=O)c3ccc(Oc4ccccc4)cc3)c2c1)c1ccc(Cl)c(Cl)c1 (stereo not drawn) [Compound I-199],< 1000,1000 to 3000,< 1000
NCCC(C(=O)Nc1ccc2[nH]ncc2c1)c1cccc(Cl)c1 (stereo not drawn) [Compound I-100],< 1000,< 1000,< 1000
C=Cc1cccc(C(=O)Nc2n[nH]c3ccc(NC(=O)C(CCN)c4ccc(Cl)c(Cl)c4)cc23)c1 (stereo not drawn) [Compound I-196],< 1000,> 3000,< 1000
NCC[C@H](C(=O)Nc1ccc2[nH]nc(NC(=O)c3cccs3)c2c1)c1ccccc1 [Compound I-1044],< 1000,< 1000,< 1000
NC(C(=O)Nc1ccc2[nH]ncc2c1)c1ccc(Cl)c(Cl)c1 (stereo not drawn) [Compound I-54],1000 to 10000,> 3000,< 1000
NCCCC(C(=O)Nc1ccc2[nH]ncc2c1)c1ccc(Cl)c(Cl)c1 (stereo not drawn) [Compound I-155],< 1000,> 3000,< 1000
NCCC(C(=O)Nc1ccc2[nH]nc(NC(=O)c3ccc(Cl)cc3)c2c1)c1ccc(Cl)c(Cl)c1 (stereo not drawn) [Compound I-182],< 1000,< 1000,< 1000
NCCC(C(=O)Nc1ccc2[nH]nc(Nc3cccc(Cl)c3)c2c1)c1ccc(Cl)c(Cl)c1 (stereo not drawn) [Compound I-162],< 1000,< 1000,< 1000
NC[C@@H](C(=O)Nc1ccc2[nH]ncc2c1)c1ccc(Cl)c(Cl)c1 [Compound I-247],< 1000,> 3000,< 1000
NCCC(C(=O)Nc1ccc2[nH]ncc2c1)c1c(F)ccc(Cl)c1F (stereo not drawn) [Compound I-109],< 1000,< 1000,< 1000
CSc1cccc(C(CCN)C(=O)Nc2ccc3[nH]ncc3c2)c1 (stereo not drawn) [Compound I-108],< 1000,1000 to 3000,< 1000
CN(C)CCC(C(=O)Nc1ccc2[nH]ncc2c1)c1ccc(Cl)c(Cl)c1 (stereo not drawn) [Compound I-226],< 1000,> 3000,< 1000
N#Cc1cccc(Nc2n[nH]c3ccc(NC(=O)C(CCN)c4ccc(Cl)c(Cl)c4)cc23)c1 (stereo not drawn) [Compound I-165],< 1000,< 1000,< 1000
N#Cc1ccc(C(=O)Nc2n[nH]c3ccc(NC(=O)C(CCN)c4ccc(Cl)c(Cl)c4)cc23)cc1 (stereo not drawn) [Compound I-174],< 1000,< 1000,< 1000
Cc1n[nH]c2ccc(NC(=O)C(CCN)c3ccc(Cl)c(Cl)c3)cc12 (stereo not drawn) [Compound I-117],< 1000,< 1000,< 1000
NCCC(C(=O)Nc1ccc2[nH]ncc2c1)c1ccccc1 (stereo not drawn) [Compound I-98],< 1000,1000 to 3000,< 1000

SMILES,Ki (AKT-3) [nM],Ki (PDK-1) [nM],Ki (PKA) [nM]
NCCC(C(=O)Nc1ccc2[nH]nc(-c3ccc(-c4ccccc4)cc3)c2c1)c1ccccc1 (stereo not drawn) [Compound I-236],1000 to 10000,< 1000,< 1000
NCCC(C(=O)Nc1ccc2[nH]nc(Nc3cccc(F)c3)c2c1)c1ccccc1 (stereo not drawn) [Compound I-1039],1000 to 10000,> 3000,< 1000
N#Cc1cccc(Nc2n[nH]c3ccc(NC(=O)C(CN)c4ccc(Cl)c(Cl)c4)cc23)c1 (stereo not drawn) [Compound I-232],< 1000,> 3000,< 1000
NCCC(C(=O)Nc1ccc2[nH]ncc2c1)c1cccc(N)c1 (stereo not drawn) [Compound I-107],1000 to 10000,1000 to 3000,< 1000
Cc1n[nH]c2ccc(NC(=O)[C@@H](CCN)c3cccc(Cl)c3F)cc12 [Compound I-126],< 1000,< 1000,< 1000
NCCC(C(=O)Nc1ccc2[nH]nc(Nc3ccc(Cl)cc3)c2c1)c1ccc(Cl)c(Cl)c1 (stereo not drawn) [Compound I-163],< 1000,> 3000,< 1000
NCCC(C(=O)Nc1ccc2[nH]nc(NC(=O)c3cc(F)cc(F)c3)c2c1)c1ccc(Cl)c(Cl)c1 (stereo not drawn) [Compound I-201],< 1000,> 3000,< 1000
NCCC(C(=O)Nc1ccc2[nH]nc(NC(=O)c3cccc(Cl)c3)c2c1)c1ccc(Cl)c(Cl)c1 (stereo not drawn) [Compound I-160],< 1000,1000 to 3000,< 1000
NCCC(C(=O)Nc1ccc2[nH]ncc2c1)c1cccc(Cl)c1F (stereo not drawn) [Compound I-101],< 1000,1000 to 3000,< 1000
NCCC(C(=O)Nc1ccc2[nH]nc(NCc3ccccc3)c2c1)c1ccc(Cl)c(Cl)c1 (stereo not drawn) [Compound I-158],1000 to 10000,1000 to 3000,< 1000
COc1ccc(C(=O)Nc2n[nH]c3ccc(NC(=O)C(CCN)c4ccc(Cl)c(Cl)c4)cc23)cc1 (stereo not drawn) [Compound I-168],< 1000,< 1000,< 1000
NCCC(C(=O)Nc1ccc2[nH]nc(NC(=O)c3cc(C(F)(F)F)cc(C(F)(F)F)c3)c2c1)c1ccc(Cl)c(Cl)c1 (stereo not drawn) [Compound I-202],< 1000,> 3000,1000 to 5000
NCCC(C(=O)Nc1ccc2[nH]nc(NC(=O)c3cccc(CN)c3)c2c1)c1ccc(Cl)c(Cl)c1 (stereo not drawn) [Compound I-197],< 1000,< 1000,< 1000
NCCC(C(=O)Nc1ccc2[nH]nc(NC(=O)c3ccc(-c4ccccc4)cc3)c2c1)c1ccc(Cl)c(Cl)c1 (stereo not drawn) [Compound I-172],< 1000,< 1000,< 1000
NCCC(C(=O)Nc1ccc2[nH]nc(-c3ccccc3)c2c1)c1ccc(Cl)c(Cl)c1 (stereo not drawn) [Compound I-119],< 1000,< 1000,< 1000
NCCC(C(=O)Nc1ccc2[nH]nc(CCc3ccccc3)c2c1)c1ccc(Cl)c(Cl)c1 (stereo not drawn) [Compound I-123],1000 to 10000,< 1000,< 1000
N#Cc1cccc(C(=O)Nc2n[nH]c3ccc(NC(=O)C(CCN)c4ccc(Cl)c(Cl)c4)cc23)c1 (stereo not drawn) [Compound I-175],< 1000,1000 to 3000,< 1000
CCNc1ccc(C(=O)Nc2n[nH]c3ccc(NC(=O)C(CCN)c4ccc(Cl)c(Cl)c4)cc23)cc1 (stereo not drawn) [Compound I-207],< 1000,< 1000,< 1000
NCCC(C(=O)Nc1ccc2[nH]nc(Nc3cccc(OCc4ccccc4)c3)c2c1)c1ccc(Cl)c(Cl)c1 (stereo not drawn) [Compound I-161],< 1000,> 3000,< 1000
Cc1n[nH]c2ccc(NC(=O)C(CCN)c3ccc(Cl)cc3F)cc12 (stereo not drawn) [Compound I-132],< 1000,< 1000,< 1000
